Laboratory results: ChEMBL document CHEMBL4699481, “Structure-based amelioration of PXR transactivation in a novel series of macrocyclic allosteric inhibitors of HIV-1 integrase” (Bioorg Med Chem Lett, 2020)

Key:
[1] = Allosteric inhibition of HIV-1 integrase assessed as antiviral activity against HIV-1 NL4-3 infected in human MT-2 cells by measuring inhibition of viral growth by luciferase reporter gene assay; assay type: cell-based; settings: Human immunodeficiency virus 1, NL4-3, MT2
[2] = target: T1, Nuclear receptor subfamily 1 group I member 2 (Homo sapiens, UniProt O75469); test: Transactivation of human PXR transfected in human HepG2 cells co-transfected with CYP3A4-Luc plasmid incubated for overnight by luciferase reporter gene assay; assay type: ADME, cell-based
T1 sequence (O75469 whole entry): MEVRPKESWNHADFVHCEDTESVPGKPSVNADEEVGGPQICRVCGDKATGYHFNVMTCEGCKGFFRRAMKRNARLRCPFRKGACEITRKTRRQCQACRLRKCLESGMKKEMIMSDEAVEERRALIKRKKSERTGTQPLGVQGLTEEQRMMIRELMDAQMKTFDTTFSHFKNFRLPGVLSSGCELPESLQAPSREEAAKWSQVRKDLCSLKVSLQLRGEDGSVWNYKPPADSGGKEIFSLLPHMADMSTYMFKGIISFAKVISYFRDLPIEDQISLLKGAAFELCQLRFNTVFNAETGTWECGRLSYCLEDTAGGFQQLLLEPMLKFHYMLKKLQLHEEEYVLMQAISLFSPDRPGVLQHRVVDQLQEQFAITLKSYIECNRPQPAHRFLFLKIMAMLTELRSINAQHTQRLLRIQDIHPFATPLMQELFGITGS

PXR (NR1I2) = target: T2, PXR (NR1I2) (Homo sapiens, UniProt O75469); test: Transactivation of human PXR transfected in human HepG2 cells co-transfected with CYP3A4-Luc plasmid incubated for overnight by luciferase reporter gene assay relative to 10 uM rifampicin; assay type: ADME, cell-based
T2 sequence (O75469 whole entry): T1 sequence (O75469 whole entry)

Cc1nc2cc(-c3cccc(-c4ccccc4)c3)nn2c(N2CCC(C)(C)CC2)c1[C@H](OC(C)(C)C)C(=O)O
EC50 [1]: 130 nM

Cc1c([C@H](OC(C)(C)C)C(=O)O)c2n3cc(nc3c1CN(C)C)-c1cccc(c1)-c1cc(F)ccc1O[C@@H](C)CCCCOC1(C)CCN2CC1
EC50 [1]: 4.4 nM
EC50 [2]: > 50 µM

Cc1c([C@H](OC(C)(C)C)C(=O)O)c2n3cc(nc3c1C(C)(C)O)-c1cccc(c1)-c1cc(F)ccc1O[C@@H](C)CCCCOC1(C)CCN2CC1
EC50 [1]: 5.7 nM
EC50 [2]: 1.01 µM
Emax (PXR (NR1I2)): 71%

Cc1cc2nc(-c3cccc(-c4cccc(F)c4)c3)cn2c(N2CCC(C)(C)CC2)c1[C@H](OC(C)(C)C)C(=O)O
EC50 [1]: 20.9 nM

Cc1c([C@H](OC(C)(C)C)C(=O)O)c2n3cc(nc3c1CNCC(C)(C)O)-c1cccc(c1)-c1cc(F)ccc1O[C@@H](C)CCCCOC1(C)CCN2CC1
EC50 [1]: 9.5 nM
EC50 [2]: > 50 µM

Cc1c([C@H](OC(C)(C)C)C(=O)O)c2n3cc(nc3c1CNC(C)C)-c1cccc(c1)-c1cc(F)ccc1O[C@@H](C)CCCCOC1(C)CCN2CC1
EC50 [1]: 7.3 nM
EC50 [2]: > 50 µM
